Laboratory results: US20030013660A1, “Dioxolane analogs for improved inter-cellular delivery” (Shire BioChem Inc., priority 2000, published 2003)

Legend:
[1] = target: T1, hCNT2 (Homo sapiens, UniProt O43868); test: Uptake by recombinant transporter in transiently transfected HeLa cells; type: in vitro ADME; conditions: 10 μM, 100 μM dilazep
T1 construct: expressed in transfected cells; host or cells: HeLa cells, transient transfection with pcDNA3-hCNT2
T1 sequence (O43868 1-658): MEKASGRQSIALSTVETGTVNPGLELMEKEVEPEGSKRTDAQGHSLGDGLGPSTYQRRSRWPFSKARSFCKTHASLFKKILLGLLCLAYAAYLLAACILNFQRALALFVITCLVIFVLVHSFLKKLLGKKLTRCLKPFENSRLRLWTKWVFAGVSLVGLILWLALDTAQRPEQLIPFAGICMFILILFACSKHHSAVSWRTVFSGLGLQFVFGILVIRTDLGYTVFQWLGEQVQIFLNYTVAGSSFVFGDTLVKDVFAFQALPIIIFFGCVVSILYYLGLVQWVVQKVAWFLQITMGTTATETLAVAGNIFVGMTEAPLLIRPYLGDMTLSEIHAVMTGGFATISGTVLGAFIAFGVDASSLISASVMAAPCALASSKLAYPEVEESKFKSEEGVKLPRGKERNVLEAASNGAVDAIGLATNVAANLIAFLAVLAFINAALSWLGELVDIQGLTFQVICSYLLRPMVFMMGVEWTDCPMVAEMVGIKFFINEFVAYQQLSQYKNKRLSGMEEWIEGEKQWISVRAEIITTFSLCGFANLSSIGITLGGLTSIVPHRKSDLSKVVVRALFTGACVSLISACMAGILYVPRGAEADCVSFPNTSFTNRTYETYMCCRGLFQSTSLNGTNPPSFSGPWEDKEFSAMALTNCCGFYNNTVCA
Experimental: Transport assays were conducted in the presence of the equilibrative transport inhibitor, 100 μM dilazep and either in the presence ( ? ) or absence (▴) of […].sodium, and compared to HeLa cells transiently transfected with the empty vector control plasmic (▾).
(§1) Cancer Res., 56: 4187-4191.
Expression plasmids encoding recombinant hCNT1 and hCNT2 are prepared using conventional methods. […] The expression vectors are separately introduced into actively proliferating HeLa cells, following conventional methods. See, e.g., Fang et al (1996).
Recombinant hCNT1 and hCNT2 were separately introduced into HeLa cells by transient transfection of pcDNA3 plasmids containing the coding sequences of the relevant nucleoside transporter protein. […] Uptake of 10 μM [^3H]troxacitabine was not mediated either by hCNT1 or by hCNT2. Troxacitabine uptake by cib-activity (hCNT3) in differentiated HL-60 cells: […]

[2] = target: T2, hENT1 (Homo sapiens, UniProt Q99808); test: Cellular uptake assay of [3H]nucleoside in DU145 cells, with or without NBMPR or excess non-radioactive troxacitabine; type: in vitro ADME; parameters: The presence of functional es-mediated transport (hENT1) in DU145 cells; endogenous in cells; host or cells: DU145 cells
T2 sequence (Q99808 1-456): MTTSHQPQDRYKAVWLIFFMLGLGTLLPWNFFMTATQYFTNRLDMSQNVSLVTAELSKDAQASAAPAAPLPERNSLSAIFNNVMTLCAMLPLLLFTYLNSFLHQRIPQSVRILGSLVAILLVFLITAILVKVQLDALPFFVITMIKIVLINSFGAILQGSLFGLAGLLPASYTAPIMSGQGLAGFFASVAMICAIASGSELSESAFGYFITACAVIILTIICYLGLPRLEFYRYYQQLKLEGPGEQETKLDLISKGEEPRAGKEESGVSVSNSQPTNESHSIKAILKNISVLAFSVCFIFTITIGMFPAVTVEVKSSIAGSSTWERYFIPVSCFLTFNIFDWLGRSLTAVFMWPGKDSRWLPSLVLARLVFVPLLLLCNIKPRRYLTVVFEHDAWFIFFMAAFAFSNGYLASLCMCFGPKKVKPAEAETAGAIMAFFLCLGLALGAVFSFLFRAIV
Experimental: as §1
This experiment is designed to show whether [^3H]L-troxacitabine (10 μM) is taken up by DU145 cells and if the rate of uptake is affected by the addition of high concentrations (1 mM) of non-radioactive troxacitabine.

[3] = target: T3, hCNT3 (Homo sapiens, UniProt Q9HAS3); conditions: 100-fold non-radioactive troxacitabine, differentiated HL-60
T3 sequence (Q9HAS3 1-691): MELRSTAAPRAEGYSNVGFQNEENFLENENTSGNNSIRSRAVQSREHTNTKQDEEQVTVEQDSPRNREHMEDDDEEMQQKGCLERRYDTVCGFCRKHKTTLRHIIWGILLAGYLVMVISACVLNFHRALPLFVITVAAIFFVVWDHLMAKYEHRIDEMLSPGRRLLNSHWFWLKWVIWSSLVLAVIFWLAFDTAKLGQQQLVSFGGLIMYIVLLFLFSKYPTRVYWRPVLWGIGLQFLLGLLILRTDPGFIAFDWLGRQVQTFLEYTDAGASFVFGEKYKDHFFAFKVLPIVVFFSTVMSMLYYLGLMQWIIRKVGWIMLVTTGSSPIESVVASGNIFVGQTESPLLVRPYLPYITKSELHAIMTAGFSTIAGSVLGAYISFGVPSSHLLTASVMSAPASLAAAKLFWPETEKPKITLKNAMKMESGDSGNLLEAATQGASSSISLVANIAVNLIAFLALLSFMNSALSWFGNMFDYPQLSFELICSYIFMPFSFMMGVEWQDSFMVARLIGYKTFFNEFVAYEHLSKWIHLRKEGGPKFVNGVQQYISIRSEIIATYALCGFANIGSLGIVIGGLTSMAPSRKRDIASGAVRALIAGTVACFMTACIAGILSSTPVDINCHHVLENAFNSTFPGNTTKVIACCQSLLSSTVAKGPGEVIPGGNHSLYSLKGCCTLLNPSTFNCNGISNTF
Text: The ability of a high concentration (100-fold) of non-radioactive troxacitabine to inhibit the uptake of ^3H]uridine by hCNT3 was examined in a differentiated HL-60 model system [Ritzel et al. (2000), supra].

[4] = system: CEM/ARAC8C cells; test: Cellular uptake assay of [3H]nucleoside in nucleoside-transport deficient CEM/ARAC8C cells; type: in vitro ADME
Experimental: FIG. 1 Comparative uptake of 30 μM [^3H]-troxacitabine in CEM (Panel A) and CEM/ARAC8C (Panel B) cells. [^3H]-Uridine uptake in either the presence or absence of the hENT1 inhibitor, NBMPR or 5 mM non-radioactive uridine was included for comparison as a control substrate.

## Nc1ccn([C@@H]2CO[C@H](CO)O2)c(=O)n1 [Troxacitabine, troxacitabine]
[1]
  uptake mediated by hCNT2: not mediated
[2]
  effect of NBMPR on uptake: not affected
  level of [3H] uptake: low levels
[2]; 10 μM [3H]L-troxacitabine
  effect of non-radioactive troxacitabine (1 mM) on uptake: no significant effect
[2]; 10 μM, short (0-30s) and prolonged exposures (0-4 h)
  rate of uptake: very slow
[3]
  effect on [3H]uridine uptake by hCNT3: no effect on uridine uptake
[4]
  uptake of [3H]nucleoside over the 6-min time course: taken up to a lesser degree
